Experimental data as given in patent publication US20070025930A1, “Dibenzoilmethane derivative compounds, the use thereof in the form of photoactivable solar filters and cosmetic compositions containing said compounds” (UNIVERSITE PAUL SABATIER TOULOUSE 3, priority 2003, published 2007).

Key:
[1] = Tests of stability towards UV radiation: water-in-oil preparation on a quartz slide, UVA absorbance monitored under solar irradiation; assay type: physicochemical; conditions: for Variation in the absorbance at 356 nm: water-in-oil preparation on quartz slide; for decrease in UVA absorbance: preparation with 1% by mass of screening agents; for decrease of the absorbance at 356 nm: mean UV flux 4 mW/cm^2; for photostability compared with Parsol 1789: solar irradiation of preparations
From the text: By way of example, the changes under irradiation of a base preparation (water-in-oil emulsion) containing the compounds obtained in the above examples, i.e. compound C10 and compound O10, are compared with that of the same preparation containing Parsol 1789 (mass % equivalent for each screening agent).
By way of example, the chosen preparations may be composed as follows:
Glycasil L 0.19%, butyl paraben 0.3%, beeswax 4%, PEG-30 dipolyhydroxystearate 3%, dicapryl carbonate 10%, polyglyceryl-3-diisostearate 1.5%, water 78.64%, xanthan gum 1%, Na2EDTA 0.2%, NaCI 1%; methyl paraben 0.17%
To this common base is added, depending on the case, the compounds C10 or O10 or Parsol 1789 in equivalent mass %. 15 to 20 mg of these preparations are spread onto a quartz slide and the UVA absorbance of the slide is monitored over time under solar irradiation (in the month of June at 43° latitude north between 13.00 h and 16.00 h, mean flux of the solar UV radiation: 4 mW/cm^2, Oriel 70380 UV Radiometer—response between 280 nm and 400 nm with a maximum at 370 nm)). The absorbance at 356 nm of the plate with Parsol 1789 decreases by 51% in 1 hour and by 73% in 2 hours. In the same time, the plates that received compound O10 have an absorbance that increases by 16% in 1 hour and 19% in 2 hours. […]

[2] = background statement on the reference screening agent; cited from earlier work
[3] = UV absorption (absorption maximum, molar extinction coefficient) in solution; assay type: physicochemical
From the text: As an illustration of these ultraviolet-absorbing capacities, measurements were taken for two dibenzoylmethane derivatives according to the invention: • for a compound of formula (I) in which R1, R′1, R2, R′2, R3, R′3, R4, R′4 and R′5 each represent a hydrogen atom and R5 represents a saturated linear acyclic carbon-based chain containing 10 carbon atoms, the absorption maximum is (in solution in acetonitrile) at 263 nm with a molar extinction coefficient of 20 000 I.cm^−1.mol^−1. This compound will be referred to hereinbelow as compound C10; • for a compound of formula (I) in which R1, R′1, R2, R′2, R3, R′3, R4, R′4 and R5 each represent a hydrogen atom and R′5 represents a saturated linear acyclic carbon-based chain containing 10 carbon atoms, the absorption maximum (in solution in acetonitrile) is at 302 nm with a molar extinction coefficient of 17 000 I.cm^−1.mol^−1.
This is likewise the case for compound C10. Furthermore, in organized medium, these two compounds, subjected to ultraviolet radiation, undergo a shift of their maximum absorbance wavelength from UVB to UVA, thus causing the same effect as organization of the system. As a result, the maximum shift of the absorption bands towards UVA is obtained by placing these compounds in organized medium under irradiation, as is the case for an antisun cosmetic preparation under the normal conditions of its use. Irradiation of the preparation amplifies the phenomenon induced by the medium in which the compounds are present. There are therefore two screening molecules present, the absorbing power of which appears in its entirety only when they are subjected to ultraviolet exposure, in an organized medium. The protection capacity of a preparation containing them should thus increase during exposure, rather than decrease, which is the case for preparations containing Parsol 1789 as sole UV-screening agent. This increase in the absorbance at the start of exposure makes it possible to maintain a maximum level of protection for longer.
The NMR spectra were acquired using a Bruker ARX 400 MHz machine. […]

Row | Variation in the absorbance at 356 nm ([1]; Irradiation 1 hour solar UV) | Variation in the absorbance at 356 nm ([1]; Irradiation 2 hours solar UV) | decrease in UVA absorbance ([1]; after 2 hours solar irradiation) [%] | decrease of the absorbance at 356 nm ([1]; in 1 hour solar irradiation) [%] | decrease in UVA absorbance ([1]; in 1 hour solar irradiation) [%] | decrease of the absorbance at 356 nm ([1]; in 2 hours solar irradiation) [%] | absorbance change during the first hour of exposure to sunlight ([1]; first hour of solar irradiation) | decrease of the absorbance during the second hour ([1]; relative to the maximum achieved after 1 hour of irradiation) [%] | photostability compared with Parsol 1789 [1] | absorption maximum ([3]; in solution in acetonitrile) [nm] | molar extinction coefficient ([3]; in solution in acetonitrile, at the absorption maximum) | absorption maximum in the UVA range (solvatochromy) ([3]; organized solvents, e.g. micellar solutions of sodium dodecyl sulfate) | Structure (SMILES) | maximum absorption efficacy (wavelength) [2] | absorbance after 2 hours of exposure to sunlight versus initial absorbance ([1]; 2 hours of solar irradiation, compared with before irradiation)
1 | −51% | −73% | 73 | 51 | 51 | 73 | – | – | – | – | – | – | COc1ccc(C(=O)CC(=O)c2ccc(C(C)(C)C)cc2)cc1 [Parsol 1789, 4-tert-butyl-4′-methoxydibenzoylmethane, reference compound] | about 340 nm | –
2 | +400% | +264% | – | – | – | – | increases greatly | 27 | much more photostable than Parsol 1789 | 263 | 20 000 I.cm^−1.mol^−1 | about 360 nm | CCCCCCCCCCC(C(=O)c1ccc(OC)cc1)C(=O)c1ccc(C(C)(C)C)cc1 (centres unmarked) [compound C10, 3-(4-tert-butylphenyl)-2-decanyl-1-(4-methoxyphenyl)propane-1,3-dione] | – | remains markedly higher than its initial absorbance
3 | – | – | – | – | – | – | – | – | much more photostable than Parsol 1789 | – | – | – | CCCCCCCCCCO/C(=C\C(=O)c1ccc(OC)cc1)c1ccc(C(C)(C)C)cc1 [compound O10, 3-(4-tert-butylphenyl)-3-decanoxy-1-(4-methoxy-phenyl) prop-2-ene-1-one] | – | –
